Experimental data reported in US12162840B2, “Herbicidal compositions” (SYNGENTA PARTICIPATIONS AG, priority 2018, dated 2024).

System: cool season plant species
Experiment: B2 Post-emergence efficacy Test 2, cool season plant species
Format: in vivo
Conditions: 15 days after application, 0=no damage, 100=total kill
In short: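 Herbicidal effect rated visually 0 (no damage) to 100 (complete kill) at 15 days post-treatment. Post-emergence spray at 12 days used an IF50 formulation with 0.2% v/v Genapol XO80 adjuvant; glasshouse 24/18 or 20/16 °C, 16 h light, 65% humidity.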

Cc1nn(C)c(=O)c(-c2c(F)ccc(Cl)c2CCc2ccc(Cl)cc2)c1OC(=O)C(C)C [Compound 1.089]
Herbicidal activity (0-100 scale) ALOMY (15 g/Ha): 20 | Herbicidal activity (0-100 scale) ALOMY (30 g/Ha): 50 | Herbicidal activity (0-100 scale) ALOMY (60 g/Ha): 50 | Herbicidal activity (0-100 scale) ALOMY (125 g/Ha): 80 | Herbicidal activity (0-100 scale) ALOMY (250 g/Ha): 80 | Herbicidal activity (0-100 scale) ALOMY (500 g/Ha): 90 | Herbicidal activity (0-100 scale) AVEFA (15 g/Ha): 30 | Herbicidal activity (0-100 scale) AVEFA (30 g/Ha): 70 | Herbicidal activity (0-100 scale) AVEFA (60 g/Ha): 70 | Herbicidal activity (0-100 scale) AVEFA (125 g/Ha): 80 | Herbicidal activity (0-100 scale) AVEFA (250 g/Ha): 90 | Herbicidal activity (0-100 scale) AVEFA (500 g/Ha): 90 | Herbicidal activity (0-100 scale) BEAVA (15 g/Ha): 90 | Herbicidal activity (0-100 scale) BEAVA (30 g/Ha): 80 | Herbicidal activity (0-100 scale) BEAVA (60 g/Ha): 80 | Herbicidal activity (0-100 scale) BEAVA (125 g/Ha): 80 | Herbicidal activity (0-100 scale) BEAVA (250 g/Ha): 90 | Herbicidal activity (0-100 scale) BEAVA (500 g/Ha): 90 | Herbicidal activity (0-100 scale) BROTE (15 g/Ha): 0 | Herbicidal activity (0-100 scale) BROTE (30 g/Ha): 0 | Herbicidal activity (0-100 scale) BROTE (60 g/Ha): 10 | Herbicidal activity (0-100 scale) BROTE (125 g/Ha): 30 | Herbicidal activity (0-100 scale) BROTE (250 g/Ha): 60 | Herbicidal activity (0-100 scale) BROTE (500 g/Ha): 70 | Herbicidal activity (0-100 scale) BRSNN (15 g/Ha): 80 | Herbicidal activity (0-100 scale) BRSNN (30 g/Ha): 80 | Herbicidal activity (0-100 scale) BRSNN (60 g/Ha): 90 | Herbicidal activity (0-100 scale) BRSNN (125 g/Ha): 90 | Herbicidal activity (0-100 scale) BRSNN (250 g/Ha): 90 | Herbicidal activity (0-100 scale) BRSNN (500 g/Ha): 90 | Herbicidal activity (0-100 scale) CHEAL (15 g/Ha): 80 | Herbicidal activity (0-100 scale) CHEAL (30 g/Ha): 90 | Herbicidal activity (0-100 scale) CHEAL (60 g/Ha): 90 | Herbicidal activity (0-100 scale) CHEAL (125 g/Ha): 100 | Herbicidal activity (0-100 scale) CHEAL (250 g/Ha): 100 | Herbicidal activity (0-100 scale) CHEAL (500 g/Ha): 100 | Herbicidal activity (0-100 scale) GALAP (15 g/Ha): 10 | Herbicidal activity (0-100 scale) GALAP (30 g/Ha): 20 | Herbicidal activity (0-100 scale) GALAP (125 g/Ha): 30 | Herbicidal activity (0-100 scale) GALAP (250 g/Ha): 30 | Herbicidal activity (0-100 scale) GALAP (500 g/Ha): 90 | Herbicidal activity (0-100 scale) HORVW (15 g/Ha): 10 | Herbicidal activity (0-100 scale) HORVW (30 g/Ha): 10 | Herbicidal activity (0-100 scale) HORVW (60 g/Ha): 20 | Herbicidal activity (0-100 scale) HORVW (125 g/Ha): 20 | Herbicidal activity (0-100 scale) HORVW (250 g/Ha): 30 | Herbicidal activity (0-100 scale) HORVW (500 g/Ha): 60 | Herbicidal activity (0-100 scale) KCHSC (15 g/Ha): 10 | Herbicidal activity (0-100 scale) KCHSC (30 g/Ha): 20 | Herbicidal activity (0-100 scale) KCHSC (60 g/Ha): 50 | Herbicidal activity (0-100 scale) KCHSC (125 g/Ha): 60 | Herbicidal activity (0-100 scale) KCHSC (250 g/Ha): 60 | Herbicidal activity (0-100 scale) KCHSC (500 g/Ha): 60 | Herbicidal activity (0-100 scale) LOLPE (15 g/Ha): 40 | Herbicidal activity (0-100 scale) LOLPE (30 g/Ha): 70 | Herbicidal activity (0-100 scale) LOLPE (60 g/Ha): 80 | Herbicidal activity (0-100 scale) LOLPE (125 g/Ha): 90 | Herbicidal activity (0-100 scale) LOLPE (250 g/Ha): 90 | Herbicidal activity (0-100 scale) LOLPE (500 g/Ha): 90 | Herbicidal activity (0-100 scale) POAAN (15 g/Ha): 20 | Herbicidal activity (0-100 scale) POAAN (30 g/Ha): 40 | Herbicidal activity (0-100 scale) POAAN (60 g/Ha): 70 | Herbicidal activity (0-100 scale) POAAN (125 g/Ha): 90 | Herbicidal activity (0-100 scale) POAAN (250 g/Ha): 80 | Herbicidal activity (0-100 scale) POAAN (500 g/Ha): 70 | Herbicidal activity (0-100 scale) SINAR (15 g/Ha): 70 | Herbicidal activity (0-100 scale) SINAR (30 g/Ha): 80 | Herbicidal activity (0-100 scale) SINAR (60 g/Ha): 90 | Herbicidal activity (0-100 scale) SINAR (125 g/Ha): 90 | Herbicidal activity (0-100 scale) SINAR (250 g/Ha): 90 | Herbicidal activity (0-100 scale) SINAR (500 g/Ha): 90 | Herbicidal activity (0-100 scale) STEME (15 g/Ha): 90 | Herbicidal activity (0-100 scale) STEME (30 g/Ha): 90 | Herbicidal activity (0-100 scale) STEME (60 g/Ha): 90 | Herbicidal activity (0-100 scale) STEME (125 g/Ha): 90 | Herbicidal activity (0-100 scale) STEME (250 g/Ha): 90 | Herbicidal activity (0-100 scale) STEME (500 g/Ha): 90 | Herbicidal activity (0-100 scale) TRZAW (15 g/Ha): 0 | Herbicidal activity (0-100 scale) TRZAW (30 g/Ha): 0 | Herbicidal activity (0-100 scale) TRZAW (60 g/Ha): 20 | Herbicidal activity (0-100 scale) TRZAW (125 g/Ha): 30 | Herbicidal activity (0-100 scale) TRZAW (250 g/Ha): 60 | Herbicidal activity (0-100 scale) TRZAW (500 g/Ha): 70 | Herbicidal activity (0-100 scale) VERPE (15 g/Ha): 70 | Herbicidal activity (0-100 scale) VERPE (30 g/Ha): 80 | Herbicidal activity (0-100 scale) VERPE (60 g/Ha): 90 | Herbicidal activity (0-100 scale) VERPE (125 g/Ha): 90 | Herbicidal activity (0-100 scale) VERPE (250 g/Ha): 100 | Herbicidal activity (0-100 scale) VERPE (500 g/Ha): 100
